In PMC12259270, “Sensory neuron–expressed FGF13 controls nociceptive signaling in diabetic neuropathy models” (The Journal of Clinical Investigation, 2025):
Values joined by “and” are separate entries in the source; they are usually repeats but may differ in a detail not shown here. Equal values may be shown once. Residues, ends and D or L forms follow the SMILES beside them. *: point of attachment. Cbz = O=C(OCc1ccccc1)*; OtBu = CC(C)(C)O*

Tests used:
[1] = mouse, in vivo
C57BL/6 mice [2] = test: Mechanical allodynia/hyperalgesia induced by intrathecal AAV2-FGF13-GFP (von Frey); format: in vivo, mouse
C57BL/6 mice [3] = test: Capsaicin-induced mechanical hypersensitivity (von Frey); format: in vivo, mouse; set-up: LVF Mean / HVF Mean / MECHANICAL LVF / MECHANICAL HVF: unit not given here
From the text: FGF13 is a neuronal gene ubiquitously transcribed in DRG neuronal subtypes ([43]–[46]). To investigate neuronal subtype enrichment of the FGF13 transcript, we examined a gene panel including FGF13, SCN9A, and several marker genes in mouse single-cell transcriptomic data (Supplemental Figure 10) ([43]–[46]). […] Critically, putative silent nociceptors marked by somatostatin (SST), and the nicotinic cholinergic receptor α-3 subunit (CHRNA3) contribute to development of inflammatory mechanical hyperalgesia ([47]). […] We next determined if PW164 modulation of the FGF13/Nav1.7 complex could suppress nociceptive behaviors in WT mice. We tested whether intraplantar (i.pl.) injection (5 μL) of PW164 altered hind paw withdrawal in response to low or high intensity von Frey filament (LVF or HVF, respectively) mechanical stimulation (Figure 3A). […] Next, we evaluated PW164’s effect on mechanical and thermal hindpaw sensitivity in capsaicin-induced nociceptive hypersensitivity models. […] Next, we performed in vivo target validation in WT mice that received an intrathecal (i.t.) injection in L5 of AAV2-shFGF13 (6 μL, viral titers 1 × 10^12 vector genomes (vg)/mL); a control group received an equal number of AAV2-shCTRL particles (Figure 3C).
Experiments were performed on 6- to 12-week-old male C57BL/6 mice (The Jackson Laboratory, Bar Harbor, ME) housed in the AAALAC-accredited facility at the University of Texas Medical Branch. Mice were group-housed with up to 5 mice per cage on a 12-to-12-hour light–dark cycle and had access to water and food ad libitum. All protocols were approved by the Institutional Animal Care and Use Committee (IACUC) at the University of Texas Medical Branch and in accordance with the National Institutes of Health (NIH) guidelines.
PW164 and ZL192 were dissolved in DMSO and saline in a ratio of 1:10. 0.1% capsaicin (10% ethanol, 10% Tween-20 in saline; Sigma-Aldrich). All the compounds were injected at the center of the hind paw. The control group received a DMSO-saline mixture. […]
Bupivacaine was prepared from a 1:2 dilution with sterile 0.9% saline and locally injected in the center of the paw at 7 mg/ml.
AAV2 viral particles packaged by the University of North Carolina Gene Therapy Core Facility (viral titer ranging […]
Before intrathecal injections in the lumbar region, mice were maintained in an anesthetizing box with 2% isoflurane to induce unconsciousness. Six microliters of viral vector were gently injected into the CSF through a 30-gauge needle with a Hamilton syringe in the lumbar area between vertebrae L4 and L5 by gently gripping the iliac crest of the mouse and inserting the needle with an angle of 45°. The correct procedure was confirmed by the mouse’s tail reflexiv e flick.
Assessment of mechanical sensitivity
Mechanical sensitivity was assessed using von Frey filaments (VFF 0.1g and 1.0 g force) in mice that were either naïve or received intraplantar (i.p.) injection of capsaicin. VFFs were applied at the injection site (capsaicin or […]

[4] = Cap + PW164 0.07 mg/mL, Time (h) 0
[5] = Cap + PW164 0.07 mg/mL, Time (h) 0.5
[6] = Cap + PW164 0.07 mg/mL, Time (h) 1
[7] = Cap + PW164 0.07 mg/mL, Time (h) 1.5
[8] = Cap + PW164 0.07 mg/mL, Time (h) 2
[9] = Cap + PW164 0.07 mg/mL, Time (h) 3
[10] = Cap + PW164 0.21 mg/mL, Time (h) 0
[11] = Cap + PW164 0.21 mg/mL, Time (h) 0.5
[12] = Cap + PW164 0.21 mg/mL, Time (h) 1
[13] = Cap + PW164 0.21 mg/mL, Time (h) 1.5
[14] = Cap + PW164 0.21 mg/mL, Time (h) 2
[15] = Cap + PW164 0.21 mg/mL, Time (h) 3
[16] = Cap + PW164 0.7 mg/mL, Time (h) 0
[17] = Cap + PW164 0.7 mg/mL, Time (h) 0.5
[18] = Cap + PW164 0.7 mg/mL, Time (h) 1
[19] = Cap + PW164 0.7 mg/mL, Time (h) 1.5
[20] = Cap + PW164 0.7 mg/mL, Time (h) 2
[21] = Cap + PW164 0.7 mg/mL, Time (h) 3
[22] = Figure 3 D, AAV2-Control mice after Cap, 0.h min PW164
[23] = Figure 3 D, AAV2-Control mice after Cap, 1h PW164
[24] = Figure 3 D, AAV2-Control mice after Cap, 2h PW164
[25] = Figure 3 D, AAv2-shFGF13 mice after Cap, 0.h min PW164
[26] = Figure 3 D, AAv2-shFGF13 mice after Cap, 1h PW164
[27] = Figure 3 D, AAv2-shFGF13 mice after Cap, 2h PW164

SMILES: COC(=O)[C@@H](NC(=O)[C@H](CCC(=O)OC(C)(C)C)NC(=O)[C@H](CC(C)C)NC(=O)[C@@H]1CCCN1C(=O)OCc1ccccc1)C(C)C [PW164] (Cbz-PLE(OtBu)V-OMe)
- brain/plasma ratio [1]: 0
- volume of distribution (Vz) [1]: 3.8 ± 0.71 L/kg
- Tmax ([1]; 15 mg/kg): 0.083
- HVF (C57BL/6 mice [2]; Figure 6E, PW164 0.7 mg/ml, 1h 30 min): 36.67 and 43.33 and 50 and 46.67 and 33.33 and 40
- allodynia and hyperalgesia in AAV2-FGF13-GFP mice (C57BL/6 mice [2]; day 68, PW164 5 μL, 0.7 mg/mL): complete recovery
- HVF Mean (C57BL/6 mice [3]; [4]): 50
- LVF Mean (C57BL/6 mice [3]; [4]): 0
- HVF Mean (C57BL/6 mice [3]; [5]): 100
- LVF Mean (C57BL/6 mice [3]; [5]): 62.5
- HVF Mean (C57BL/6 mice [3]; [6]): 97.5
- LVF Mean (C57BL/6 mice [3]; [6]): 62.5
- HVF Mean (C57BL/6 mice [3]; [7]): 85
- LVF Mean (C57BL/6 mice [3]; [7]): 45
- HVF Mean (C57BL/6 mice [3]; [8]): 87.5
- LVF Mean (C57BL/6 mice [3]; [8]): 35
- HVF Mean (C57BL/6 mice [3]; [9]): 83.75
- LVF Mean (C57BL/6 mice [3]; [9]): 32.5
- HVF Mean (C57BL/6 mice [3]; [10]): 51.6667
- LVF Mean (C57BL/6 mice [3]; [10]): 0
- HVF Mean (C57BL/6 mice [3]; [11]): 100
- LVF Mean (C57BL/6 mice [3]; [11]): 60
- HVF Mean (C57BL/6 mice [3]; [12]): 78.3333
- LVF Mean (C57BL/6 mice [3]; [12]): 40
- HVF Mean (C57BL/6 mice [3]; [13]): 83.3333
- LVF Mean (C57BL/6 mice [3]; [13]): 35
- HVF Mean (C57BL/6 mice [3]; [14]): 90
- LVF Mean (C57BL/6 mice [3]; [14]): 30
- HVF Mean (C57BL/6 mice [3]; [15]): 98.3333
- LVF Mean (C57BL/6 mice [3]; [15]): 38.3333
- HVF Mean (C57BL/6 mice [3]; [16]): 50
- LVF Mean (C57BL/6 mice [3]; [16]): 0
- HVF Mean (C57BL/6 mice [3]; [17]): 100
- LVF Mean (C57BL/6 mice [3]; [17]): 61.6667
- HVF Mean (C57BL/6 mice [3]; Cap + PW164 0.7 mg/mL, Time (h) 0.75): 80
- HVF Mean (C57BL/6 mice [3]; [18]): 63.3333
- LVF Mean (C57BL/6 mice [3]; [18]): 20
- HVF Mean (C57BL/6 mice [3]; [19]): 63.3333
- LVF Mean (C57BL/6 mice [3]; [19]): 13.3333
- HVF Mean (C57BL/6 mice [3]; [20]): 68.3333
- LVF Mean (C57BL/6 mice [3]; [20]): 21.6667
- HVF Mean (C57BL/6 mice [3]; [21]): 86.6667
- LVF Mean (C57BL/6 mice [3]; [21]): 31.6667
- HVF Mean (C57BL/6 mice [3]; [22]): 43.3333
- LVF Mean (C57BL/6 mice [3]; [22]): 14.17
- HVF Mean (C57BL/6 mice [3]; [23]): 50
- LVF Mean (C57BL/6 mice [3]; [23]): 13.33
- HVF Mean (C57BL/6 mice [3]; [24]): 45.8333
- LVF Mean (C57BL/6 mice [3]; [24]): 9.17
- HVF Mean (C57BL/6 mice [3]; [25]): 41.5152
- LVF Mean (C57BL/6 mice [3]; [25]): 9.09
- HVF Mean (C57BL/6 mice [3]; [26]): 37.9091
- LVF Mean (C57BL/6 mice [3]; [26]): 9.39
- HVF Mean (C57BL/6 mice [3]; [27]): 41.2121
- LVF Mean (C57BL/6 mice [3]; [27]): 11.52
- duration of analgesic effect (C57BL/6 mice [3]; PW164 0.7 mg/mL i.pl., naive and AAV2-shCTRL mice after capsaicin): at least 2 hours
- mechanical sensitivity in AAV2-shFGF13 mice after capsaicin (C57BL/6 mice [3]; PW164 5 μL, 0.7mg/mL hind paw): did not further modify
- capsaicin-induced mechanical sensitivity (C57BL/6 mice [3]; PW164 at the capsaicin injection site, 30 minutes post-capsaicin): inhibited
- lowest concentration with dose-dependent antihyperalgesic effect (C57BL/6 mice [3]; i.pl., capsaicin model): 0.21 mg/mL
